The values below come from PubChem BioAssay AID743418 (The Scripps Research Institute Molecular Screening Center, 2014).

The source made the active and inactive calls. How the calls were made is not given here. Some results are limits rather than exact numbers.

The target in this assay is Sphingosine 1-phosphate receptor 2 (Homo sapiens) (UniProt O95136). Put plainly: agonism at human S1PR2 – cell-based, fluorescence, dose response, counter-screen for S1PR3 antagonist project, late-stage follow-up (AID 743418). The following applies: S1P2-expressing cells, agonist-mode fluorescence read-out.
Sphingosine 1-phosphate receptor 2 (Homo sapiens), sequence (O95136 whole entry, looked up): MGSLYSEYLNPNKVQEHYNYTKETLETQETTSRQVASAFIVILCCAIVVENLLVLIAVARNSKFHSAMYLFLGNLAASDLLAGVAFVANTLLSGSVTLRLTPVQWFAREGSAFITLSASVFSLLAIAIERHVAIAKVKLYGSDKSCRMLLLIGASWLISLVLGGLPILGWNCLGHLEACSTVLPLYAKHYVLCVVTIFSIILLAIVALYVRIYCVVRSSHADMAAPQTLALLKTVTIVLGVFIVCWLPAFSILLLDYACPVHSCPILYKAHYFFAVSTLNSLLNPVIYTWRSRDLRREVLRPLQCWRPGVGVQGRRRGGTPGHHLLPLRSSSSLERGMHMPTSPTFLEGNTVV
With `O=C(NC(c1ccccc1)c1nc(-c2ccccc2)no1)c1cccc(Br)c1` (configuration not stated), the EC50 is > 50 µM (inactive). The figure for `COc1ccc(C(=O)NC(c2ccccc2)c2nc(-c3ccccc3)no2)cc1` (configuration not stated) is > 50 µM (inactive); for `O=C(NC(c1nc(-c2ccccc2)no1)C1CCCCC1)c1ccc(Cl)c(Cl)c1` (configuration not stated) it is > 50 µM (inactive). In the case of `O=C(NC(c1ccccc1)c1nc(-c2ccccc2)no1)c1cccc(Cl)c1` (configuration not stated), the EC50 was > 50 µM (inactive). With `O=C(NC(c1ccccc1)c1nc(-c2ccccc2)no1)c1ccc(Cl)cc1` (configuration not stated), the EC50 was > 50 µM (inactive). Take `O=C(NC(c1ccc(Cl)cc1)c1nc(-c2ccccc2)no1)c1cccc(Cl)c1` (configuration not stated): the EC50 was > 50 µM (inactive). Take `O=C(NC(c1ccc(Cl)c(Cl)c1)c1nc(-c2ccccc2)no1)c1ccc(Cl)cc1` (configuration not stated): the EC50 is > 50 µM (inactive).

As for `O=C(NC(c1cccc(Cl)c1)c1nc(-c2ccccc2)no1)c1cccc(Cl)c1` (configuration not stated), the EC50 was > 50 µM (inactive). In the case of `O=C(NC(c1ccc(Cl)cc1)c1nc(-c2ccccc2)no1)c1ccc(Cl)c(Cl)c1` (configuration not stated), the EC50 is > 50 µM (inactive). As for `O=C(NC(c1ccc(Br)cc1)c1nc(-c2ccccc2)no1)c1ccc(Cl)c(Cl)c1` (configuration not stated), the EC50 was > 50 µM (inactive). Take `O=C(NC(c1cccc(Cl)c1)c1nc(-c2ccccc2)no1)c1cc(Cl)cc(Cl)c1` (configuration not stated): the EC50 was > 50 µM (inactive).

On to `O=C(NC(Cc1ccccc1)c1nc(-c2ccccc2)no1)c1cccc(Cl)c1` (configuration not stated), for which the EC50 was > 50 µM (inactive). For `O=C(NC(c1ccc(Cl)c(Cl)c1)c1nc(-c2ccccc2)no1)c1ccccc1` (configuration not stated) the value was > 50 µM (inactive); for `O=C(NC(c1ccccc1)c1nc(-c2ccccc2)no1)c1cccc(Cl)n1` (configuration not stated), > 50 µM (inactive). For `O=C(NC(c1ccc(Cl)c(Cl)c1)c1nc(-c2ccccc2)no1)c1ccc(Cl)c(Cl)c1` (configuration not stated) the value was > 50 µM (inactive); for `N#Cc1ccc(C(=O)NC(c2ccc(Cl)c(Cl)c2)c2nc(-c3ccccc3)no2)cc1` (configuration not stated), > 50 µM (inactive); for `Cc1ccc(C(NC(=O)c2cccc(Cl)c2)c2nc(-c3ccccc3)no2)cc1` (configuration not stated), > 50 µM (inactive). `CCc1ccc(C(NC(=O)c2cccc(Cl)c2)c2nc(-c3ccccc3)no2)cc1` (configuration not stated): the EC50 is > 50 µM (inactive). Regarding `O=C(c1cccc(Cl)c1)N(CCO)C(c1ccc(Cl)c(Cl)c1)c1nc(-c2ccccc2)no1` (configuration not stated), the EC50 was > 50 µM (inactive). Take `O=C(NC(c1ccc(Cl)cc1)c1nc(-c2ccccc2)no1)c1cccc(Br)c1` (configuration not stated): the EC50 was > 50 µM (inactive). For `O=C(NC(c1ccc(Cl)cc1)c1nc(-c2ccccn2)no1)c1cccc(Cl)c1` (configuration not stated) the value was > 50 µM (inactive); for `O=C(NC(c1cccc(Cl)c1)c1nc(-c2ccccc2)no1)c1ccc(Cl)c(Cl)c1` (configuration not stated), > 50 µM (inactive); for `O=C(NC(c1ccc(Cl)c(Cl)c1)c1nc(-c2ccccc2)no1)c1cccc(Cl)c1` (configuration not stated), > 50 µM (inactive). The figure for `O=C(NC(c1ccc(Cl)cc1)c1nc(-c2cccc(Cl)c2)no1)c1cccc(Cl)c1` (configuration not stated) is > 50 µM (inactive); for `Cc1ccc(C(=O)NC(c2ccccc2)c2nc(-c3ccccc3)no2)cc1` (configuration not stated) it is > 50 µM (inactive).

Consider `O=C(NC(c1nc(-c2ccccc2)no1)C1CCOCC1)c1ccc(Cl)c(Cl)c1` (configuration not stated), for which the EC50 is > 50 µM (inactive).

Take `O=C(NC(c1ccc(Cl)cc1)c1nc(-c2ccccc2)no1)c1ccc(Cl)c(Br)c1` (configuration not stated): the EC50 was > 50 µM (inactive).
